From patent US20250282768A1 (Janssen Pharmaceutica NV, priority 2022, published 2025) come the findings set out here.

This assay deals with p-IKKa levels in L363 (NIK translocated multiple myeloma) cells. Briefly: Assay 2: Effect of compounds on p-IKKa levels in L363 (NIK translocated multiple myeloma) cells. The class given is cell-based. The settings on record: Homo sapiens, L-363, 6 h, read-out: Assay 2 IC50 (nM), p-IKKa (Ser 176/180) in BAFF stimulated L363 cells with MG132, 6 h; average if tested more than once. In outline: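 Read-out is p-IKKa Ser176/180 by AlphaLISA SureFire in lysates. Cells were BAFF-primed (250 ng/ml) overnight or left unstimulated, then exposed 6 h at 37 °C to compound with MG132 (10 μM), 0.3% DMSO. IC50 from sigmoidal curve fit, normalized between stimulated and unstimulated controls.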
On to `CN1CC[C@@](O)(c2cc(-c3cccc(-c4ccnc(Nc5cnn6c5CCCC6)n4)n3)no2)C1=O` [Example 259, (R)-3-Hydroxy-1-methyl-3-(3-(6-(2-((4,5,6,7-tetrahydropyrazolo[1,5-a]pyridin-3-yl)amino)pyrimidin-4-yl)pyridin-2-yl)isoxazol-5-yl)pyrrolidin-2-one], for which the IC50 is less than 50 nM.

For `COCc1ccnc(Nc2nccc(-c3cccc(-c4cc([C@]5(O)CCN(C)C5=O)on4)n3)n2)c1` [Example 260, (R)-3-Hydroxy-3-(3-(6-(2-((4-(methoxymethyl)pyridin-2-yl)amino)pyrimidin-4-yl)pyridin-2-yl)isoxazol-5-yl)-1-methylpyrrolidin-2-one], the IC50 is less than 50 nM.

With `CCn1cc(Nc2nccc(-c3cccc(-c4cc([C@@]5(O)C(=O)N(C)CC5(F)F)on4)n3)n2)cn1` [Example 261, (R)-3-(3-(6-(2-((1-Ethyl-1H-pyrazol-4-yl)amino)pyrimidin-4-yl)pyridin-2-yl)isoxazol-5-yl)-4,4-difluoro-3-hydroxy-1-methylpyrrolidin-2-one], the IC50 was less than 50 nM.

For the compound `CN1CC[C@@](O)(c2cc(-c3cccc(-c4ccnc(Nc5cn(C)nc5F)n4)n3)no2)C1=O` [Example 262, (R)-3-(3-(6-(2-((3-Fluoro-1-methyl-1H-pyrazol-4-yl)amino)pyrimidin-4-yl)pyridin-2-yl)isoxazol-5-yl)-3-hydroxy-1-methylpyrrolidin-2-one], the IC50 is less than 50 nM.

For the compound `CN1CC[C@@](O)(c2cc(-c3cccc(-c4ccnc(Nc5ccn(C)n5)n4)n3)on2)C1=O` [Example 263, (R)-3-Hydroxy-1-methyl-3-(5-(6-(2-((1-methyl-1H-pyrazol-3-yl)amino)pyrimidin-4-yl)pyridin-2-yl)isoxazol-3-yl)pyrrolidin-2-one], the IC50 is less than 50 nM.

On to `CN1CC[C@@](O)(c2cc(-c3cccc(-c4ccnc(Nc5cnn(C6COC6)c5)n4)n3)no2)C1=O` [Example 264, (R)-3-Hydroxy-1-methyl-3-(3-(6-(2-((1-(oxetan-3-yl)-1H-pyrazol-4-yl)amino)pyrimidin-4-yl)pyridin-2-yl)isoxazol-5-yl)pyrrolidin-2-one], for which the IC50 is less than 50 nM.

Consider `Cc1cnnc(Nc2nccc(-c3cccc(-c4cc([C@]5(O)CCN(C)C5=O)on4)n3)n2)n1` [Example 265, (R)-3-Hydroxy-1-methyl-3-(3-(6-(2-((5-methyl-1,2,4-triazin-3-yl)amino)pyrimidin-4-yl)pyridin-2-yl)isoxazol-5-yl)pyrrolidin-2-one], for which the IC50 is greater than 500 nM.

`CN1CC[C@@](O)(c2cc(-c3cccc(-c4ccnc(Nc5nc(C6CCOCC6)nn5C)n4)n3)no2)C1=O` [Example 266, (R)-3-Hydroxy-1-methyl-3-(3-(6-(2-((1-methyl-3-(tetrahydro-2H-pyran-4-yl)-1H-1,2,4-triazol-5-yl)amino)pyrimidin-4-yl)pyridin-2-yl)isoxazol-5-yl)pyrrolidin-2-one]: the IC50 is greater than 500 nM.

In the case of `CN1CC[C@@](O)(c2cc(-c3cccc(-c4ccnc(Nc5nnn(C)n5)n4)n3)no2)C1=O` [Example 267, (R)-3-Hydroxy-1-methyl-3-(3-(6-(2-((2-methyl-2H-tetrazol-5-yl)amino)pyrimidin-4-yl)pyridin-2-yl)isoxazol-5-yl)pyrrolidin-2-one], the IC50 was 50 to 500 nM.

With `Cc1ccc(O)c(Nc2nccc(-c3cccc(-c4cc([C@]5(O)CCN(C)C5=O)on4)n3)n2)n1` [Example 268, (R)-3-Hydroxy-3-(3-(6-(2-((3-hydroxy-6-methylpyridin-2-yl)amino)pyrimidin-4-yl)pyridin-2-yl)isoxazol-5-yl)-1-methylpyrrolidin-2-one], the IC50 is greater than 500 nM.

In the case of `Cc1c(Nc2nccc(-c3cccc(-c4cc([C@]5(O)CCN(C)C5=O)on4)n3)n2)cnn1CC(C)(C)O` [Example 269, (R)-3-Hydroxy-3-(3-(6-(2-((1-(2-hydroxy-2-methylpropyl)-5-methyl-1H-pyrazol-4-yl)amino)pyrimidin-4-yl)pyridin-2-yl)isoxazol-5-yl)-1-methylpyrrolidin-2-one], the IC50 was less than 50 nM.

`CN1CC[C@@](O)(c2cc(-c3cccc(-c4ccnc(Nc5ccn(CC6CCOCC6)n5)n4)n3)no2)C1=O` [Example 270, (R)-3-Hydroxy-1-methyl-3-(3-(6-(2-((1-((tetrahydro-2H-pyran-4-yl)methyl)-1H-pyrazol-3-yl)amino)pyrimidin-4-yl)pyridin-2-yl)isoxazol-5-yl)pyrrolidin-2-one]: the IC50 is less than 50 nM.

Turning to `COCc1nc(Nc2nccc(-c3cccc(-c4cc([C@]5(O)CCN(C)C5=O)on4)n3)n2)n(C)n1` [Example 271, (R)-3-Hydroxy-3-(3-(6-(2-((3-(methoxymethyl)-1-methyl-1H-1,2,4-triazol-5-yl)amino)pyrimidin-4-yl)pyridin-2-yl)isoxazol-5-yl)-1-methylpyrrolidin-2-one], the IC50 is greater than 500 nM.

Regarding `Cc1ccn2cnnc2c1Nc1nccc(-c2cccc(-c3cc([C@]4(O)CCN(C)C4=O)on3)n2)n1` [Example 273, (R)-3-Hydroxy-1-methyl-3-(3-(6-(2-((7-methyl-[1,2,4]triazolo[4,3-a]pyridin-8-yl)amino)pyrimidin-4-yl)pyridin-2-yl)isoxazol-5-yl)pyrrolidin-2-one], the IC50 is greater than 500 nM.

With `CN(C)Cc1ccc(Nc2nccc(-c3cccc(-c4cc([C@]5(O)CCN(C)C5=O)on4)n3)n2)nc1` [Example 274, (R)-3-(3-(6-(2-((5-((Dimethylamino)methyl)pyridin-2-yl)amino)pyrimidin-4-yl)pyridin-2-yl)isoxazol-5-yl)-3-hydroxy-1-methylpyrrolidin-2-one], the IC50 lay in the range of 50 to 500 nM.

As for `CCn1ncnc1Nc1nccc(-c2cccc(-c3cc([C@]4(O)CCN(C)C4=O)on3)n2)n1` [Example 276, (R)-3-(3-(6-(2-((1-Ethyl-1H-1,2,4-triazol-5-yl)amino)pyrimidin-4-yl)pyridin-2-yl)isoxazol-5-yl)-3-hydroxy-1-methylpyrrolidin-2-one], the IC50 is greater than 500 nM.

For `CN(C)C(=O)Cn1ccc(Nc2nccc(-c3cccc(-c4cc([C@]5(O)CCN(C)C5=O)on4)n3)n2)n1` [Example 277, (R)-2-(3-((4-(6-(5-(3-Hydroxy-1-methyl-2-oxopyrrolidin-3-yl)isoxazol-3-yl)pyridin-2-yl)pyrimidin-2-yl)amino)-1H-pyrazol-1-yl)-N,N-dimethylacetamide], the IC50 lay within 50 to 500 nM.

With `Cc1nn(CCN(C)C)c(C)c1Nc1nccc(-c2cccc(-c3cc([C@]4(O)CCN(C)C4=O)on3)n2)n1` [Example 278, (R)-3-(3-(6-(2-((1-(2-(Dimethylamino)ethyl)-3,5-dimethyl-1H-pyrazol-4-yl)amino)pyrimidin-4-yl)pyridin-2-yl)isoxazol-5-yl)-3-hydroxy-1-methylpyrrolidin-2-one], the IC50 was greater than 500 nM.

As for `CN1CC[C@@](O)(c2cc(-c3cccc(-c4ccnc(Nc5cc(Cl)n(C)n5)n4)n3)no2)C1=O` [Example 279, (R)-3-(3-(6-(2-((5-Chloro-1-methyl-1H-pyrazol-3-yl)amino)pyrimidin-4-yl)pyridin-2-yl)isoxazol-5-yl)-3-hydroxy-1-methylpyrrolidin-2-one], the IC50 is 50 to 500 nM.

Regarding `CN1CC[C@@](O)(c2cc(-c3cccc(-c4ccnc(Nc5cc(CO)n(C)n5)n4)n3)no2)C1=O` [Example 280, (R)-3-Hydroxy-3-(3-(6-(2-((5-(hydroxymethyl)-1-methyl-1H-pyrazol-3-yl)amino)pyrimidin-4-yl)pyridin-2-yl)isoxazol-5-yl)-1-methylpyrrolidin-2-one], the IC50 was 50 to 500 nM.

Regarding `CN1CC[C@@](O)(c2cc(-c3cccc(-c4ccnc(Nc5ccnnc5)n4)n3)no2)C1=O` [Example 281, (R)-3-Hydroxy-1-methyl-3-(3-(6-(2-(pyridazin-4-ylamino)pyrimidin-4-yl)pyridin-2-yl)isoxazol-5-yl)pyrrolidin-2-one], the IC50 was greater than 500 nM.

As for `Cc1cc(Nc2nccc(-c3cccc(-c4cc([C@]5(O)CCN(C)C5=O)on4)n3)n2)nn1C` [Example 282, (R)-3-(3-(6-(2-((1,5-Dimethyl-1H-pyrazol-3-yl)amino)pyrimidin-4-yl)pyridin-2-yl)isoxazol-5-yl)-3-hydroxy-1-methylpyrrolidin-2-one], the IC50 was less than 50 nM.

With `Cc1cc(Nc2nccc(-c3cccc(-c4cc([C@]5(O)CCN(C)C5=O)on4)n3)n2)cc(C)n1` [Example 283, (R)-3-(3-(6-(2-((2,6-Dimethylpyridin-4-yl)amino)pyrimidin-4-yl)pyridin-2-yl)isoxazol-5-yl)-3-hydroxy-1-methylpyrrolidin-2-one], the IC50 was less than 50 nM.

For the compound `COc1ccc(Nc2nccc(-c3cccc(-c4cc([C@]5(O)CCN(C)C5=O)on4)n3)n2)cn1` [Example 285, (R)-3-Hydroxy-3-(3-(6-(2-((6-methoxypyridin-3-yl)amino)pyrimidin-4-yl)pyridin-2-yl)isoxazol-5-yl)-1-methylpyrrolidin-2-one], the IC50 was less than 50 nM.

Consider `C[C@@H]1C[C@@](O)(c2cc(-c3cccc(-c4ccnc(Nc5cnn(C)c5)n4)n3)no2)C(=O)N1C` [Example 286, (3R,5R)-3-Hydroxy-1,5-dimethyl-3-(3-(6-(2-((1-methyl-1H-pyrazol-4-yl)amino)pyrimidin-4-yl)pyridin-2-yl)isoxazol-5-yl)pyrrolidin-2-one], for which the IC50 is greater than 500 nM.

For `CN1C(=O)[C@](O)(c2cc(-c3cccc(-c4ccnc(Nc5cnn(C)c5Cl)n4)n3)no2)[C@H]2C[C@H]21` [Example 287, (1R,4R,5S)-4-(3-(6-(2-((5-Chloro-1-methyl-1H-pyrazol-4-yl)amino)pyrimidin-4-yl)pyridin-2-yl)isoxazol-5-yl)-4-hydroxy-2-methyl-2-azabicyclo[3.1.0]hexan-3-one], the IC50 lay in the range of 50 to 500 nM.

With `COc1cncc(Nc2nccc(-c3cccc(-c4cc([C@]5(O)CCN(C)C5=O)on4)n3)n2)c1` [Example 288, (R)-3-Hydroxy-3-(3-(6-(2-((5-methoxypyridin-3-yl)amino)pyrimidin-4-yl)pyridin-2-yl)isoxazol-5-yl)-1-methylpyrrolidin-2-one], the IC50 was less than 50 nM.
